From paper PMC6858373 (Scientific Reports, 2019)
pIC50: −log10 of the molar value. Where two headings read alike, the source gives them in different places.

Legend:
[1] = target: T1, FGF14:Nav1.6 C-tail complex (Homo sapiens, UniProt Q92915+Q9UQD0); assay: Split-luciferase complementation assay (LCA) in Clone V double stable HEK293 cells; format: cell-based; conditions: for Split Luciferase Assay % Lum Set 1 / Split Luciferase Assay %Lum Set 2 / Split Luciferase Assay Z-score Set 1 / Split Luciferase Assay Z-score Set 2 / Split Luciferase Assay %Lum Avg: CC_NCI screening; for Split Luciferase Assay % Lum Set 1 / Split Luciferase Assay %Lum Set 2: LCA luminescence, normalized to on-plate 0.3% DMSO controls (n=16 per plate); for Split Luciferase Assay % Lum Set 1 / Split Luciferase Assay Z-score Set 1: biological replicate Set 1; for Split Luciferase Assay %Lum Set 2 / Split Luciferase Assay Z-score Set 2: biological replicate Set 2; for Split Luciferase Assay Z-score Set 1 / Split Luciferase Assay Z-score Set 2: LCA, normalized to on-plate 0.3% DMSO controls; for Split Luciferase Assay %Lum Avg: average of Set 1 and Set 2, normalized to 0.3% DMSO controls
T1 construct: polymerase chain reaction (PCR) amplification of the FGF14 open reading frame (nt 1–855); C-terminal fragment of Nav1.6 (amino acids 1763–1976) fused with CD4ΔC-tail (amino acids 1–395); expressed in transfected cells

[2] = target: full-length P. pyralis luciferase (Photinus pyralis, UniProt P08659, K549A/L550V/N119G/N50D/S548I); format: cell-based; conditions: CC_NCI screening, normalized to on-plate 0.3% DMSO controls; for Luciferase Assay % Lum: full-length luciferase counter-screen luminescence; for Luciferase Assay Z-score: full-length luciferase counter-screen
[3] = test system: Clone V cells; assay: CellTiter Blue (CTB) cell viability counter-screen; conditions: CC_NCI screening, normalized to on-plate 0.3% DMSO controls; for Toxicity Assay % Fluor: CTB cell viability fluorescence; for Toxicity Assay Z-score: CTB cell viability
[4] = test system: Clone V cells

Sequence of full-length P. pyralis luciferase (P08659 whole entry N50D/N119G/S548I/K549A/L550V, looked up): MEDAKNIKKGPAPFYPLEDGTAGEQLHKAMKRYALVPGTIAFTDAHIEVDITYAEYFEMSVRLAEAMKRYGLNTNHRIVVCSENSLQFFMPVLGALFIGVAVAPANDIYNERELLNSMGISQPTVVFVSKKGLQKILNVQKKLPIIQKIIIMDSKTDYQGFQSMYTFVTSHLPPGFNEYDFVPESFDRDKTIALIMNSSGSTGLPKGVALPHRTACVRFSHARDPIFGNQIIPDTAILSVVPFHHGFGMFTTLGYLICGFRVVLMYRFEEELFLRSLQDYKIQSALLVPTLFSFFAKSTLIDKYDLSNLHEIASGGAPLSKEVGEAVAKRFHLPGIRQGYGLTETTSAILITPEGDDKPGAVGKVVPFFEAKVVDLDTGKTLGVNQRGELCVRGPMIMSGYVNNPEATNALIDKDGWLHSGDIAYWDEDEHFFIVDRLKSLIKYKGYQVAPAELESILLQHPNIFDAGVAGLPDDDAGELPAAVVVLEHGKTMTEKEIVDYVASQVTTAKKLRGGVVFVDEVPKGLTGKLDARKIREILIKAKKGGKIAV
T1 sequence (Q92915 1-252 isoform Q92915-2): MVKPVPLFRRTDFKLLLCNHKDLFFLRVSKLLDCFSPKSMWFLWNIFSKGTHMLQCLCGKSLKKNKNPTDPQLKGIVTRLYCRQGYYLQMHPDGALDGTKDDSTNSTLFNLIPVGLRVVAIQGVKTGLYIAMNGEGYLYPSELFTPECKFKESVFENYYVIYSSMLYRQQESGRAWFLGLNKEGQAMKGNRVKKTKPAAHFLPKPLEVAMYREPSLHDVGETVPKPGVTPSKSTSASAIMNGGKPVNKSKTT
T1 sequence (Q9UQD0 1763-1976 limits assumed): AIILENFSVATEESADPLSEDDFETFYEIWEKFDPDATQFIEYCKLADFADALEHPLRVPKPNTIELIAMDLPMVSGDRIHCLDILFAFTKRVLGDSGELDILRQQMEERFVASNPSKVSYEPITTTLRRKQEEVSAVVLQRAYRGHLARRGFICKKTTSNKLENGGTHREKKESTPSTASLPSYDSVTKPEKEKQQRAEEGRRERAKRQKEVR

SMILES	Split Luciferase Assay % Lum Set 1 [1] [%]	Split Luciferase Assay %Lum Set 2 [1] [%]	Split Luciferase Assay Z-score Set 1 [1]	Split Luciferase Assay Z-score Set 2 [1]	Split Luciferase Assay %Lum Avg [1] [%]	Luciferase Assay % Lum [2] [%]	Luciferase Assay Z-score [2]	Toxicity Assay % Fluor [3] [%]	Toxicity Assay Z-score [3]	Toxicity Assay % Fluor [4] [%]	Toxicity Assay Z-score [4]	Toxicity Assay % Fluor ([4]; human, 16 h, 30 µM) [%]	Toxicity Assay Z-score ([4]; human, 16 h, 30 µM)	Z-score (LCA primary screening) ([1]; 30 µM, 384-well, average of primary screening (n = 2), vs on-plate 0.3% DMSO)	dose-response behavior of repurchased compounds ([1]; 10-point dose response 0.25-50 µM, Clone V cells)	IMin (% Luminescence) ([1]; antagonists, Clone V cells, 384-well, normalized to DMSO)	action toward the FGF14:Nav1.6 C-tail interaction ([1]; dose-dependency validation using fresh compound samples)	pIC50 ([1]; estimated, 8-point dose response 0.25-30 µM, n = 4 per concentration, library compounds, read-out: IC50)	pIC50 ([1]; repurchased compounds, 10-point dose response 0.25-50 µM, n = 8 per concentration, Clone V cells, 384-well, read-out: in-cell IC50)
CN(C)C/C=C/C(=O)Nc1cc2c(Nc3ccc(F)c(Cl)c3)ncnc2cc1O[C@H]1CCOC1 [BIBW2992]	70.99	94.67	-2.34	-0.43	82.83	76.41	-3.02	100.79	0.11	–	–	–	–	–	–	–	–	–	–
C#CCC(Cc1cnc2nc(N)nc(N)c2n1)c1ccc(C(=O)N[C@@H](CCC(=O)O)C(=O)O)cc1 (stereo partly drawn) [Pralatrexate]	117.73	106.11	1.43	0.50	111.92	103.37	0.43	96.60	-0.47	–	–	–	–	–	–	–	–	–	–
Cn1nnc2c(C(N)=O)ncn2c1=O [Temozolomide]	106.86	109.23	0.55	0.75	108.05	99.34	-0.09	84.35	-2.19	–	–	–	–	–	–	–	–	–	–
CO[C@H]1C[C@@H]2CC[C@@H](C)[C@@](O)(O2)C(=O)C(=O)N2CCCC[C@H]2C(=O)O[C@H]([C@H](C)C[C@@H]2CC[C@@H](O)[C@H](OC)C2)CC(=O)[C@H](C)/C=C(\C)[C@@H](O)[C@@H](OC)C(=O)[C@H](C)C[C@H](C)/C=C/C=C/C=C/1C [RAPAMYCIN]	95.99	74.90	-0.32	-2.04	85.45	77.09	-2.93	110.83	1.51	–	–	–	–	–	–	–	–	–	–
Cc1ccc(Nc2nccc(N(C)c3ccc4c(C)n(C)nc4c3)n2)cc1S(N)(=O)=O [PAZOPANIB]	100.34	122.76	0.03	1.85	111.55	97.40	-0.33	86.91	-1.83	–	–	–	–	–	–	–	–	–	–
C[C@@H](Oc1cc(-c2cnn(C3CCNCC3)c2)cnc1N)c1c(Cl)ccc(F)c1Cl [PF-2341066]	59.03	48.89	-3.31	-4.16	53.96	–	–	82.92	-2.39	–	–	–	–	–	–	–	–	–	–
CCCCCCCCCCCCCCCCCCOP(=O)([O-])OC1CC[N+](C)(C)CC1 [PERIFOSINE]	86.21	89.47	-1.11	-0.86	87.84	103.68	0.47	83.07	-2.37	–	–	–	–	–	–	–	–	–	–
CN1CCN(CCOc2cc(OC3CCOCC3)c3c(Nc4c(Cl)ccc5c4OCO5)ncnc3c2)CC1 [SARACATINIB]	85.12	98.83	-1.20	-0.10	91.97	107.97	1.02	108.09	1.13	–	–	–	–	–	–	–	–	–	–
Cc1ccc(F)c(NC(=O)Nc2ccc(-c3cccc4[nH]nc(N)c34)cc2)c1 [ABT-869]	14.46	21.85	-6.91	-6.36	18.15	60.04	-5.12	87.41	-1.76	–	–	–	–	–	–	–	–	–	–
Nc1nc(Cl)nc2c1ncn2[C@H]1C[C@H](O)[C@@H](CO)O1 [Cladribine]	–	–	–	3.04	–	98.25	-0.22	83.86	-2.26	–	–	–	–	–	–	–	–	–	–
COc1cc2c(Nc3ccc(Br)cc3F)ncnc2cc1OCC1CCN(C)CC1 [Vandetanib]	89.47	115.47	-0.85	1.26	102.47	80.83	-2.46	97.46	-0.36	–	–	–	–	–	–	–	–	–	–
O=C(CCCCCCC(=O)Nc1ccccc1)NO [Vorinostat]	88.38	88.43	-0.94	-0.94	88.40	97.95	-0.26	101.32	0.19	–	–	–	–	–	–	–	–	–	–
CN(C)C/C=C/C(=O)Nc1cc2c(Nc3ccc(F)c(Cl)c3)ncnc2cc1O[C@H]1CCOC1 [Afatinib]	72.08	61.38	-2.26	-3.14	66.73	73.64	-3.38	82.04	-2.51	–	–	–	–	–	–	–	–	–	–
Cc1c(NC(=O)OC[C@@H]2COCCN2)cn2ncnc(Nc3ccc4c(cnn4Cc4cccc(F)c4)c3)c12 [BMS-599626]	38.37	50.98	-4.98	-3.99	44.68	83.05	-2.17	101.94	0.27	–	–	–	–	–	–	–	–	–	–
CNC(=O)c1cc(Oc2ccc(NC(=O)Nc3ccc(Cl)c(C(F)(F)F)c3)c(F)c2)ccn1 [Regorafenib]	43.81	47.85	-4.54	-4.24	45.83	83.68	-2.09	88.66	-1.59	–	–	–	–	–	–	–	–	–	–
Cc1cn(-c2cc(NC(=O)c3ccc(C)c(Nc4nccc(-c5cccnc5)n4)c3)cc(C(F)(F)F)c2)cn1 [NILOTINIB]	109.04	122.76	0.73	1.85	115.90	102.54	0.33	–	–	88.70	-1.58	–	–	–	–	–	–	–	–
NC(=O)c1ccc(I)c([N+](=O)[O-])c1 [BSI-201]	102.51	112.35	0.20	1.01	107.43	101.73	0.22	–	–	–	–	93.94	-0.85	–	–	–	–	–	–
O=S(=O)(NCCNC/C=C/c1ccc(Br)cc1)c1cccc2cnccc12 [H-89, reference compound]	14.46	17.69	-6.91	-6.70	16.07	80.98	-2.44	–	–	91.80	-1.15	–	–	−6.81	purely inhibitory effects	16.07	acted as antagonists	4.92	5.72
